Tested on: red blood cells
Conditions: riboflavin and visible light, FIG. 4
Text: Red blood cells were suspended in AS3 during a pathogen reduction procedure using riboflavin and visible light. […] AS3 contains sodium chloride, dextrose, adenine, sodium phosphate, sodium citrate and citric acid.

How did the “% hemolysis of red blood cells” value turn out when Cc1cc2nc3c(=O)[nH]c(=O)nc-3n(CC(O)C(O)C(O)CO)c2cc1C (stereo not shown) [riboflavin, 7,8-dimethyl-10-ribityl isoalloxazine] was run?
Its value is “less than 2%”.

Source: US8679736B2, “Removal of adenine during a pathogen reduction process in whole blood or red blood cells by dilution” (Terumo BCT Biotechnologies, LLC, priority 2002, dated 2014)
